In brackets after ≈: the same amount, converted by molar mass. Activity calls are given as the source filed them. The rule behind the calls is not given here.
Key:
[1] = tested on: Mycobacterium tuberculosis H37Rv; assay: Antimycobacterial activity against Mycobacterium tuberculosis H37Rv assessed as reduction in bacterial growth incubated for 5 days by resazurin assay; format: functional; details: 120 h, time 5 day
[2] = tested on: Mycobacterium tuberculosis H37Rv; assay: Antimycobacterial activity against Mycobacterium tuberculosis H37Rv infected in human THP-1 macrophages assessed as reduction in microbial growth incubated for 72 hrs; format: functional
[3] = tested on: Escherichia coli; assay: Antibacterial activity against Escherichia coli BW25113 assessed as reduction in bacterial growth measured every 1 hr for 16 to 20 hrs; format: functional; details: time 16-20 hrs
[4] = tested on: Pseudomonas aeruginosa; assay: Antibacterial activity against Pseudomonas aeruginosa ATCC 27853 assessed as reduction in bacterial growth measured every 1 hr for 16 to 20 hrs; format: functional; details: time 16-20 hrs
[5] = tested on: Bacillus subtilis; assay: Antibacterial activity against Bacillus subtilis 168 assessed as reduction in bacterial growth measured every 1 hr for 16 to 20 hrs; format: functional; details: time 16-20 hrs
[6] = tested on: Mycobacterium tuberculosis; assay: Bacteriostatic activity against Mycobacterium tuberculosis mc2 6230 at 10 times MIC after 28 days by time-kill kinetics method; format: functional, organism-based; details: time 28.0 day
[7] = Antimycobacterial activity against Mycobacterium abscessus subsp. abscessus assessed as reduction in bacterial growth measured every 1 hr for 16 to 20 hrs; format: functional; details: Mycobacteroides abscessus; time 16-20 hrs
[8] = tested on: Mycobacterium tuberculosis; assay: Antimycobacterial activity against Mycobacterium tuberculosis mc2 6230 assessed as reduction in bacterial growth incubated for 10 days by time-kill kinetics method; format: functional; details: mc2 6230, 240 h, time 10 day
[9] = tested on: Enterococcus faecium; assay: Antibacterial activity against Enterococcus faecium ATCC 6569 assessed as reduction in bacterial growth measured every 1 hr for 16 to 20 hrs; format: functional; details: time 16-20 hrs
[10] = tested on: Staphylococcus aureus; assay: Antibacterial activity against Staphylococcus aureus ATCC 29213 assessed as reduction in bacterial growth measured every 1 hr for 16 to 20 hrs; format: functional; details: time 16-20 hrs
[11] = tested on: Staphylococcus epidermidis; assay: Antibacterial activity against Staphylococcus epidermidis assessed as reduction in bacterial growth measured every 1 hr for 16 to 20 hrs; format: functional; details: time 16-20 hrs
[12] = tested on: Mycobacterium avium; assay: Antimycobacterial activity against Mycobacterium avium CA 6 assessed as reduction in bacterial growth measured every 1 hr for 16 to 20 hrs; format: functional; details: time 16-20 hrs
[13] = tested on: Mycobacterium marinum; assay: Antimycobacterial activity against Mycobacterium marinum infected in zebrafish assessed as reduction in bacterial burden at 100 uM after 3 days post infection by microscopic analysis; format: functional, organism-based; details: time 3.0 day
[14] = Inhibition of Mycobacterium tuberculosis MurX using UDP-MurNAc-dansylpentapeptide as substrate by fluorescence assay
[15] = tested on: Mycolicibacterium fortuitum; assay: Antimycobacterial activity against Mycobacterium fortuitum PN assessed as reduction in bacterial growth measured every 1 hr for 16 to 20 hrs; format: functional; details: time 16-20 hrs
[16] = tested on: Mycolicibacterium fortuitum; assay: Antimycobacterial activity against Mycobacterium fortuitum RA 17 assessed as reduction in bacterial growth measured every 1 hr for 16 to 20 hrs; format: functional; details: time 16-20 hrs
[17] = tested on: Mycobacteroides abscessus; assay: Antimycobacterial activity against Mycobacterium abscessus RA 16 assessed as reduction in bacterial growth measured every 1 hr for 16 to 20 hrs; format: functional; details: time 16-20 hrs
[18] = tested on: Mycobacterium marinum; assay: Antimycobacterial activity against Mycobacterium marinum infected in zebrafish assessed as reduction in bacterial burden at 100 uM after 5 days post infection by microscopic analysis; format: functional, organism-based; details: time 5.0 day

SMILES | MIC50 [1] | MIC50 [2] | IC50 [14] | other results
C[C@@H]([C@H](NC(=O)[C@H](Cc1ccc2ccccc2c1)NC(=O)N[C@@H](Cc1c[nH]c2ccccc12)C(=O)O)C(=O)NC[C@H]1C[C@@H](O)[C@H](n2ccc(=O)[nH]c2=O)O1)N(C)C(=O)CN | 0.18 µM (≈ 0.149 µg/mL) | 4.3 µM | – | –
C[C@@H]([C@H](NC(=O)[C@H](Cc1ccc2ccccc2c1)NC(=O)N[C@@H](Cc1c[nH]c2ccccc12)C(=O)NCC(C)(C)C)C(=O)NC[C@H]1C[C@@H](O)[C@H](n2ccc(=O)[nH]c2=O)O1)N(C)C(=O)CN | 0.0419 µM (≈ 0.0375 µg/mL) | 1.2 µM | 20 nM | MIC [3]: 132 µM (≈ 118 µg/mL); MIC [4]: > 132 µM; MIC [5]: 132 µM (≈ 118 µg/mL); Activity [6]: Active; MIC [7]: 26 µM (≈ 23.3 µg/mL); MIC [8]: 0.181 µM (≈ 0.162 µg/mL); MIC [9]: > 132 µM; MIC [10]: > 132 µM; MIC [11]: > 132 µM; MIC [12]: 1 µM (≈ 0.895 µg/mL); Activity [13]: Active; MIC [15]: 2 µM (≈ 1.79 µg/mL); MIC [16]: 1 µM (≈ 0.895 µg/mL); MIC [17]: 13 µM (≈ 11.6 µg/mL)
CCCCCCCCCCCCOC(=O)[C@H](Cc1c[nH]c2ccccc12)NC(=O)N[C@@H](CC1CCCCC1)C(=O)N[C@H](C(=O)NC[C@H]1C[C@@H](O)[C@H](n2ccc(=O)[nH]c2=O)O1)[C@H](C)N(C)C(=O)CN | 0.142 µM (≈ 0.135 µg/mL) | – | – | –
C[C@@H]([C@H](NC(=O)[C@H](CC1CCCCC1)NC(=O)N[C@@H](Cc1c[nH]c2ccccc12)C(=O)NCC(C)(C)C)C(=O)NC[C@H]1C[C@@H](O)[C@H](n2ccc(=O)[nH]c2=O)O1)N(C)C(=O)CN | 0.0225 µM (≈ 0.0191 µg/mL) | 6.7 µM | 60 nM | MIC [3]: 88 µM (≈ 74.9 µg/mL); MIC [4]: > 132 µM; MIC [5]: > 132 µM; Activity [6]: inactive; MIC [7]: 23 µM (≈ 19.6 µg/mL); MIC [8]: 0.313 µM (≈ 0.266 µg/mL); MIC [9]: > 132 µM; MIC [10]: > 132 µM; MIC [11]: > 132 µM; MIC [12]: 1 µM (≈ 0.851 µg/mL); MIC [15]: 1 µM (≈ 0.851 µg/mL); MIC [16]: 1 µM (≈ 0.851 µg/mL); MIC [17]: 23 µM (≈ 19.6 µg/mL)
CCCCCCNC(=O)[C@H](Cc1c[nH]c2ccccc12)NC(=O)N[C@@H](CC1CCCCC1)C(=O)N[C@H](C(=O)NC[C@H]1C[C@@H](O)[C@H](n2ccc(=O)[nH]c2=O)O1)[C@H](C)N(C)C(=O)CN | 0.124 µM (≈ 0.107 µg/mL) | > 100 µM | 75 nM | –
C[C@@H]([C@H](NC(=O)[C@H](CC1CCCCC1)NC(=O)N[C@@H](Cc1c[nH]c2ccccc12)C(=O)NCc1ccccc1)C(=O)NC[C@H]1C[C@@H](O)[C@H](n2ccc(=O)[nH]c2=O)O1)N(C)C(=O)CN | 0.0454 µM (≈ 0.0395 µg/mL) | 4.6 µM | 66 nM | –
C[C@@H]([C@H](NC(=O)[C@H](CC1CCCCC1)NC(=O)N[C@@H](Cc1c[nH]c2ccccc12)C(=O)OCC(C)(C)C)C(=O)NC[C@H]1C[C@@H](O)[C@H](n2ccc(=O)[nH]c2=O)O1)N(C)C(=O)CN | 0.0059 µM (≈ 0.00503 µg/mL) | 12.5 µM | 712 nM | –
CCCCCCNC(=O)[C@H](Cc1c[nH]c2ccccc12)NC(=O)N[C@@H](Cc1ccc2ccccc2c1)C(=O)N[C@H](C(=O)NC[C@H]1C[C@@H](O)[C@H](n2ccc(=O)[nH]c2=O)O1)[C@H](C)N(C)C(=O)CN | 0.0925 µM (≈ 0.0841 µg/mL) | 2.1 µM | 49 nM | –
COC(=O)[C@H](Cc1c[nH]c2ccccc12)NC(=O)N[C@@H](Cc1ccc2ccccc2c1)C(=O)N[C@H](C(=O)NC[C@H]1C[C@@H](O)[C@H](n2ccc(=O)[nH]c2=O)O1)[C@H](C)N(C)C(=O)CN | 0.0652 µM (≈ 0.0548 µg/mL) | – | – | –
C[C@@H]([C@H](NC(=O)[C@H](Cc1ccc2ccccc2c1)NC(=O)N[C@@H](Cc1c[nH]c2ccccc12)C(=O)OCC(C)(C)C)C(=O)NC[C@H]1C[C@@H](O)[C@H](n2ccc(=O)[nH]c2=O)O1)N(C)C(=O)CN | 0.021 µM (≈ 0.0188 µg/mL) | 1.5 µM | 801 nM | –
C[C@@H]([C@H](NC(=O)[C@H](Cc1ccc2ccccc2c1)NC(=O)N[C@@H](Cc1c[nH]c2ccccc12)C(=O)OCc1ccccc1)C(=O)NC[C@H]1C[C@@H](O)[C@H](n2ccc(=O)[nH]c2=O)O1)N(C)C(=O)CN | 0.0132 µM (≈ 0.0121 µg/mL) | 5.1 µM | 1380 nM | –
CO[C@H]1/C=C/O[C@@]2(C)Oc3c(C)c(O)c4c(O)c(c(/C=N/N5CCN(C)CC5)c(O)c4c3C2=O)NC(=O)/C(C)=C\C=C\[C@H](C)[C@H](O)[C@@H](C)[C@@H](O)[C@@H](C)[C@H](OC(C)=O)[C@@H]1C [RIFAMPIN] | 0.00153 µM (≈ 0.00126 µg/mL) | – | – | Activity [18]: Active
CCCCCCOC(=O)[C@H](Cc1c[nH]c2ccccc12)NC(=O)N[C@@H](CC1CCCCC1)C(=O)N[C@H](C(=O)NC[C@H]1C[C@@H](O)[C@H](n2ccc(=O)[nH]c2=O)O1)[C@H](C)N(C)C(=O)CN | 0.0172 µM (≈ 0.0149 µg/mL) | 9.5 µM | 1390 nM | –
C[C@@H]([C@H](NC(=O)[C@H](CC1CCCCC1)NC(=O)N[C@@H](Cc1c[nH]c2ccccc12)C(=O)O)C(=O)NC[C@H]1C[C@@H](O)[C@H](n2ccc(=O)[nH]c2=O)O1)N(C)C(=O)CN | 0.08 µM (≈ 0.0625 µg/mL) | 1.6 µM | 54 nM | –
COC(=O)[C@H](Cc1c[nH]c2ccccc12)NC(=O)N[C@@H](CC1CCCCC1)C(=O)N[C@H](C(=O)NC[C@H]1C[C@@H](O)[C@H](n2ccc(=O)[nH]c2=O)O1)[C@H](C)N(C)C(=O)CN | 0.0397 µM (≈ 0.0316 µg/mL) | – | – | –
CCCCCCOC(=O)[C@H](Cc1c[nH]c2ccccc12)NC(=O)N[C@@H](Cc1ccc2ccccc2c1)C(=O)N[C@H](C(=O)NC[C@H]1C[C@@H](O)[C@H](n2ccc(=O)[nH]c2=O)O1)[C@H](C)N(C)C(=O)CN | 0.0269 µM (≈ 0.0245 µg/mL) | 0.5 µM | 2670 nM | –
C[C@@H]([C@H](NC(=O)[C@H](CC1CCCCC1)NC(=O)N[C@@H](Cc1c[nH]c2ccccc12)C(=O)OCc1ccccc1)C(=O)NC[C@H]1C[C@@H](O)[C@H](n2ccc(=O)[nH]c2=O)O1)N(C)C(=O)CN | 0.0085 µM (≈ 0.00741 µg/mL) | 11.3 µM | 614 nM | –
C[C@@H]([C@H](NC(=O)[C@H](Cc1ccc2ccccc2c1)NC(=O)N[C@@H](Cc1c[nH]c2ccccc12)C(=O)NCc1ccccc1)C(=O)NC[C@H]1C[C@@H](O)[C@H](n2ccc(=O)[nH]c2=O)O1)N(C)C(=O)CN | 0.0741 µM (≈ 0.0678 µg/mL) | 1.9 µM | 34 nM | –
CCCCCCCCCCCCOC(=O)[C@H](Cc1c[nH]c2ccccc12)NC(=O)N[C@@H](Cc1ccc2ccccc2c1)C(=O)N[C@H](C(=O)NC[C@H]1C[C@@H](O)[C@H](n2ccc(=O)[nH]c2=O)O1)[C@H](C)N(C)C(=O)CN | 0.192 µM (≈ 0.191 µg/mL) | – | – | –

From ChEMBL document CHEMBL5055683, “Synthetic Sansanmycin Analogues as Potent Mycobacterium tuberculosis Translocase I Inhibitors” (J Med Chem, 2021)
